According to US12655116B2, “Substituted isophthalic acid diamides” (Bayer Aktiengesellschaft, priority 2020, dated 2026):

Key:
ABUTH [1] = test: Pre-emergence herbicidal action against ABUTH; type: in vivo, Abutilon theophrasti; settings: Abutilon theophrasti, 504 h
Outline: (§1)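 Sandy loam pots, seeds covered with soil, then surface-treated with WP or EC formulations at 600–800 l/ha water plus 0.2% wetting agent. Greenhouse, 3 weeks. Percent damage vs untreated controls.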

ALOMY [2] = test: Pre-emergence herbicidal action against ALOMY; type: in vivo, Alopecurus myosuroides; settings: Alopecurus myosuroides, 504 h, pre-emergence
Outline: as §1

AMARE [3] = test: Pre-emergence herbicidal action against AMARE; type: in vivo, Amaranthus retroflexus; settings: Amaranthus retroflexus, 504 h, scored visually after 3 weeks vs untreated controls, 100% = plants have died, 0% = like control plants
Outline: as §1

AVEFA [4] = test: Pre-emergence herbicidal action against AVEFA; type: in vivo, Avena fatua; settings: Avena fatua, 504 h; 80 g/ha, pre-emergence
Outline: as §1

ECHCG [5] = test: Pre-emergence herbicidal action against ECHCG; type: in vivo, Echinochloa crus-galli; settings: Echinochloa crus-galli, 504 h
Outline: as §1

LOLRI [6] = test: Pre-emergence herbicidal action against LOLRI; type: in vivo, Lolium rigidum; settings: Lolium rigidum, 504 h, 80 g/ha
Outline: as §1

MATIN [7] = test: Pre-emergence herbicidal action against MATIN; type: in vivo, Matricaria inodora; settings: Tripleurospermum inodorum, 504 h
Outline: as §1

PHBPU [8] = test: Pre-emergence herbicidal action against PHBPU; type: in vivo, Pharbitis purpurea; settings: Ipomoea purpurea, 504 h, dosage 80 g/ha
Outline: as §1

SETVI [9] = test: Pre-emergence herbicidal action against SETVI; type: in vivo, Setaria viridis; settings: Setaria viridis, 504 h, dosage 80 g/ha
Outline: as §1

VERPE [10] = test: Pre-emergence herbicidal action against VERPE; type: in vivo, Veronica persica; settings: Veronica persica, 504 h
Outline: as §1

VIOTR [11] = test: Pre-emergence herbicidal action against VIOTR; type: in vivo, Viola tricolor; settings: Viola tricolor, 504 h, dosage 80 g/ha
Outline: as §1

DIGSA = test: Pre-emergence herbicidal action against DIGSA; type: in vivo, Digitaria sanguinalis; settings: Digitaria sanguinalis, 504 h
Outline: as §1

ABUTH [12] = test: Post-emergence herbicidal action against ABUTH; type: in vivo, Abutilon theophrasti; settings: Abutilon theophrasti, 504 h, visual assessment about 3 weeks after treatment vs untreated controls
Outline: (§2)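 Visual % rating (0% = as untreated, 100% = dead) ~3 wk after spraying one-leaf-stage plants grown in sandy loam; WP/EC in water at 600–800 l/ha, 0.2% wetting agent.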

ALOMY [13] = test: Post-emergence herbicidal action against ALOMY; type: in vivo, Alopecurus myosuroides; settings: Alopecurus myosuroides, 504 h, visual assessment about 3 weeks after treatment vs untreated controls
Outline: as §2

AMARE [14] = test: Post-emergence herbicidal action against AMARE; type: in vivo, Amaranthus retroflexus; settings: Amaranthus retroflexus, 504 h, 20 g/ha, visual assessment about 3 weeks after treatment, 100% = plants have died, 0% = like control plants
Outline: as §2

AVEFA [15] = test: Post-emergence herbicidal action against AVEFA; type: in vivo, Avena fatua; settings: Avena fatua, 504 h, 20 g/ha, visual assessment about 3 weeks after treatment, 100% = plants have died, 0% = like control plants
Outline: as §2

ECHCG [16] = test: Post-emergence herbicidal action against ECHCG; type: in vivo, Echinochloa crus-galli; settings: Echinochloa crus-galli, 504 h, dosage 20 g/ha
Outline: as §2

LOLRI [17] = test: Post-emergence herbicidal action against LOLRI; type: in vivo, Lolium rigidum; settings: Lolium rigidum, 504 h, dosage 20 g/ha
Outline: as §2

MATIN [18] = test: Post-emergence herbicidal action against MATIN; type: in vivo, Matricaria inodora; settings: Tripleurospermum inodorum, 504 h, dosage 20 g/ha
Outline: as §2

PHBPU [19] = test: Post-emergence herbicidal action against PHBPU; type: in vivo, Pharbitis purpurea; settings: Ipomoea purpurea, 504 h, dosage 20 g/ha
Outline: as §2

POLCO = test: Post-emergence herbicidal action against POLCO; type: in vivo, Polygonum convolvulus; settings: Fallopia convolvulus, 504 h, dosage 20 g/ha
Outline: as §2

SETVI [20] = test: Post-emergence herbicidal action against SETVI; type: in vivo, Setaria viridis; settings: Setaria viridis, 504 h, dosage 20 g/ha
Outline: as §2

VERPE [21] = test: Post-emergence herbicidal action against VERPE; type: in vivo, Veronica persica; settings: Veronica persica, 504 h, 20 g/ha
Outline: as §2

VIOTR [22] = test: Post-emergence herbicidal action against VIOTR; type: in vivo, Viola tricolor; settings: Viola tricolor, 504 h
Outline: as §2

[23] = 80 g/ha, scored visually after 3 weeks vs untreated controls (100% = plants have died, 0% = like control plants)

Structure (SMILES): CCNC(=O)c1c(Br)ccc(C(=O)Nc2nnnn2C)c1Cl [Example 1-178, 4-bromo-2-chloro-N^3-ethyl-N^1-(1-methyl-1H-tetrazol-5-yl)isophthalamide]
- pest or weed control at 80 g/ha (ABUTH [1]; [23]): 100%
- pest or weed control at 20 g/ha (ABUTH [1]; dosage 20 g/ha, scored visually after 3 weeks vs untreated controls, 100% = plants have died, 0% = like control plants, read-out: Pre-emergence action against ABUTH (herbicidal activity in percent)): 90%
- pest or weed control at 80 g/ha (ALOMY [2]; [23]): 100%
- pest or weed control at 20 g/ha (ALOMY [2]; 20 g/ha, scored visually after 3 weeks, 100% = plants have died, 0% = like control plants): 80%
- pest or weed control at 20 g/ha (AMARE [3]; 20 g/ha): 100%
- pest or weed control at 80 g/ha (AMARE [3]; 80 g/ha): 100%
- pest or weed control at 80 g/ha (AVEFA [4]): 100%
- pest or weed control at 20 g/ha (ECHCG [5]; 20 g/ha): 80%
- pest or weed control at 80 g/ha (ECHCG [5]; 80 g/ha): 100%
- pest or weed control at 80 g/ha (LOLRI [6]): 80%
- pest or weed control at 20 g/ha (MATIN [7]; dosage 20 g/ha): 90%
- pest or weed control at 80 g/ha (MATIN [7]; dosage 80 g/ha): 100%
- pest or weed control at 80 g/ha (PHBPU [8]): 80%
- pest or weed control at 80 g/ha (SETVI [9]): 100%
- pest or weed control at 20 g/ha (VERPE [10]; dosage 20 g/ha): 80%
- pest or weed control at 80 g/ha (VERPE [10]; dosage 80 g/ha): 80%
- pest or weed control at 80 g/ha (VIOTR [11]): 100%
- pest or weed control at 20 g/ha (DIGSA; dosage 20 g/ha): 100%
- pest or weed control at 80 g/ha (DIGSA; dosage 80 g/ha): 100%
- pest or weed control at 5 g/ha (ABUTH [12]; dosage 5 g/ha): 80%
- pest or weed control at 20 g/ha (ABUTH [12]; dosage 20 g/ha): 80%
- pest or weed control at 5 g/ha (ALOMY [13]; dosage 5 g/ha): 90%
- pest or weed control at 20 g/ha (ALOMY [13]; dosage 20 g/ha): 100%
- pest or weed control at 20 g/ha (AMARE [14]): 100%
- pest or weed control at 20 g/ha (AVEFA [15]): 80%
- pest or weed control at 20 g/ha (ECHCG [16]): 90%
- pest or weed control at 20 g/ha (LOLRI [17]): 80%
- pest or weed control at 20 g/ha (MATIN [18]): 90%
- pest or weed control at 20 g/ha (PHBPU [19]): 80%
- pest or weed control at 20 g/ha (POLCO): 80%
- pest or weed control at 20 g/ha (SETVI [20]): 90%
- pest or weed control at 20 g/ha (VERPE [21]): 80%
- pest or weed control at 5 g/ha (VIOTR [22]; 5 g/ha): 80%
- pest or weed control at 20 g/ha (VIOTR [22]; 20 g/ha): 80%
